Assay results reported in US12410189B2, “Polymorphs and solid forms of (S)-2-2((2-((S)-4-(difluoromethyl)-2-oxooxazolidin-3-yl)-5,6-dihydrobenzo[f]imidazo[1,2-d][1,4]oxazepin-9-yl)amino)propanamide, and methods of production” (Genentech, Inc., priority 2017, dated 2025).
In brackets after ≈: the same amount, converted by molar mass. Entries after “also recorded” stand apart in the source; their conditions may differ.

Columns and labels:
[1] = Water sorption analysis (dynamic vapor sorption); format: physicochemical
Description: About 5-6 mg of powder sample was placed in the sample pan of an automated water sorption analyzer (Q5000SA, TA instruments, New Castle, DE) at 25° C. and a nitrogen flow rate of 200 mL/min. The sample was initially “dried” at 0% RH for a total of 600 minutes (at 60 followed by 25° C.), following which it was subjected to progressive increase in RH from 0-90%, in increments of 10% with a dwell time of 240 minutes at every RH with a dm/dt window of 0.001% for 30 minutes. This was followed by a progressive decrease in RH in decrements of 10% back to 0% RH, using the same protocol. For hydrate samples, the process was reversed where the starting RH was maintained at 90%, followed by a progressive step-wise lowering to 0%, followed by similar step wise increase back to 90%. This was done to ensure that the water of hydration is retained at the start of the experiment.

[2] = Isothermal TGA dehydration of Form B; format: physicochemical; conditions: TGA held at 60° C.
Description: The desolvation behavior of Form B as well its ability to rehydrate was further characterized. […] As evident from the data, the hydrate dehydrates readily, losing almost all of its lattice water (12%) at 60° C. and rehydrates after 4 hours of equilibration which indicates easy passage of water in and out of the lattice. The water sorption desorption behavior of trihydrate Form B GDC-0077 at 25° C. is depicted in FIG. 10A. The dynamic vapor sorption experiment provides information about the dehydration behavior of Form B. Dehydration of Form B commences rapidly below 40% RH (desorption curve) and is complete by the time the sample is exposed to 0% RH. Although there is a hysteresis showing equilibrium lag, the anhydrous product rehydrates beyond 40% RH, equally readily. […] The trihydrate dehydrates in 2-3 steps whereas the anhydrate to hydrate formation occurs majorly in one step at >40% RH (25° C.).
Isothermal experiments: In a thermogravimetric analyzer (Q500 TGA, TA instruments), 3-4 mg of GDC-0077 samples were heated in an open aluminum pan from RT to 60° C. at a heating rate of 10° C./min held isothermally at 60° C. overnight. Samples were then either analyzed by XRPD or left to equilibrate at RT for 4 hours in the sample pan and then rerun isothermally at 60° C. using the same experimental parameters as mentioned above.

PI3K = PI3K (Homo sapiens, UniProt P42336); conditions: WO 2017/001645, US 2017/0015678, AACR 2017; cited from earlier work
PI3K, sequence (P42336 whole entry): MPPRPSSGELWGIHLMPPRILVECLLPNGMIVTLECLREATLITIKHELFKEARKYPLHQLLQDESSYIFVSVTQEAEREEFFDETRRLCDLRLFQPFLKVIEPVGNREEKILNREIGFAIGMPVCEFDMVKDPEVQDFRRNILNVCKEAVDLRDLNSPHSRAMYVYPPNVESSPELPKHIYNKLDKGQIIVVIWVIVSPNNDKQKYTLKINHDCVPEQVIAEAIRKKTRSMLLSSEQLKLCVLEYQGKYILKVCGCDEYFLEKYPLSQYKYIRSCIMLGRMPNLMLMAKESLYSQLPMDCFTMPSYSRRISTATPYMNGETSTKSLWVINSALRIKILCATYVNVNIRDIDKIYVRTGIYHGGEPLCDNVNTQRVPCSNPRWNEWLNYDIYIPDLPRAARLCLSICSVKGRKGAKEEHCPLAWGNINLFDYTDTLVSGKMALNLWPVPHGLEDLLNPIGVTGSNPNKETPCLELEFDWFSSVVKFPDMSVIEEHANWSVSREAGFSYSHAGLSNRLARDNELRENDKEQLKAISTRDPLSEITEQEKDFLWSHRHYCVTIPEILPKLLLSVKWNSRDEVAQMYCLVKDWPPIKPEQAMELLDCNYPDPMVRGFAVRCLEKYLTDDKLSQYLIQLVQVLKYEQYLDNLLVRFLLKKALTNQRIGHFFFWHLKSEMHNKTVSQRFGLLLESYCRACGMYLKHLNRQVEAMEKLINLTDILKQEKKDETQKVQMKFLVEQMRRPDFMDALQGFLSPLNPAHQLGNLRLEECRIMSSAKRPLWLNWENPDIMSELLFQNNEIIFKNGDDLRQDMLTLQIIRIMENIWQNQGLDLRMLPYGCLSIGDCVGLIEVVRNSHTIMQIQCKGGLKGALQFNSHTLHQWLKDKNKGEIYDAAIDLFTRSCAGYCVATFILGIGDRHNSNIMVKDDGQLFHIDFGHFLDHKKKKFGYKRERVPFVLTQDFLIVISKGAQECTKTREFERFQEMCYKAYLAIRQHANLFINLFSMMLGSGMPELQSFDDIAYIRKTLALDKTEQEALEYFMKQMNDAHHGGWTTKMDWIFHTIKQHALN
PI3K, sequence (P27986 whole entry partner): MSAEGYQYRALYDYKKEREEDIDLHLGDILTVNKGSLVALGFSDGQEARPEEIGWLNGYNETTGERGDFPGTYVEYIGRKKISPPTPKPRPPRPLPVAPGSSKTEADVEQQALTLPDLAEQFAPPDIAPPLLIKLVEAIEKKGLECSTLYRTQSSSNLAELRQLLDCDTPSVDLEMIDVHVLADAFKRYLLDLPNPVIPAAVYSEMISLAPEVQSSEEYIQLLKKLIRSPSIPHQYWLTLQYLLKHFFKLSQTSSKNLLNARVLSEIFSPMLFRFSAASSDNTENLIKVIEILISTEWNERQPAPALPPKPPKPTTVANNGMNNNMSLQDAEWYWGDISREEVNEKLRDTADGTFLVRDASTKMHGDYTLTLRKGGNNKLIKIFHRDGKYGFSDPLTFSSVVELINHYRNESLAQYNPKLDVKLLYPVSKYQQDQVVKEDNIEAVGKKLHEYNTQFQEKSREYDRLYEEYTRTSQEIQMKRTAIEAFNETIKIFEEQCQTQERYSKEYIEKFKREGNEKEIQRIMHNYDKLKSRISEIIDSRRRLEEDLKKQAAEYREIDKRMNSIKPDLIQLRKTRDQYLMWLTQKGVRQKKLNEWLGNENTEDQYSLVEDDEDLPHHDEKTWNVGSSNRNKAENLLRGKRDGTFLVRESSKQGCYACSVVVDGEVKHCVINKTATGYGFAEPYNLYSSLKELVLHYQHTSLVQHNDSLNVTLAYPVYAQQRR

[3] = Slurry bridging of hydrate-anhydrate mixtures in ethanol-water mixtures, water activity; format: physicochemical; conditions: RT
Description: Deionized (DI) Water-ethanol (absolute alcohol) mixtures of different compositions ranging from 0-100% water were prepared and their water activities were measured using a water activity meter. Slurry experiments were set up at RT wherein 1:1 mixtures of trihydrate and anhydrous forms of GDC-0077 (40 mg total) were added to these solvent mixtures (1.5 mL liquid) and agitated at RT over 4 days. After 4 days, the samples were aliquoted and centrifuged. The solids were analyzed by XRPD and the supernatant was analyzed for water activity. 1:1 mixture of Forms A and D was slurried in in-propanol overnight at RT. The slurry was centrifuged and the solid form was analyzed by XRPD. An Aqualab 4TEV (Decagon Devices, WA) was used as the water activity meter in the capacitance sensor mode to acquire data at 25±0.2° C. for solvent mixtures and slurry supernatants. Instrument was calibrated using vendor provided standards (saturated salt solutions) over the aw range of 0.25-1. All aw values are obtained after stabilization of three consecutive reads.

[4] = Slurry bridging of Forms A and D (1:1) in n-propanol; format: physicochemical
Description: Based on Burger and Ramberger's “Heat of Fusion Rule” of polymorphism, two polymorphs are considered to be monotropic if the one with the higher melting point has a greater heat of fusion as well (Burger and Ramberger, Mikrochimica Acta (1979), 256). […] To confirm this further, a slurry bridging experiment was conducted at RT in n-propanol, which had previously yielded Form D from the crude API.
Deionized (DI) Water-ethanol (absolute alcohol) mixtures of different compositions ranging from 0-100% water were prepared and their water activities were measured using a water activity meter. Slurry experiments were set up at RT wherein 1:1 mixtures of trihydrate and anhydrous forms of GDC-0077 (40 mg total) were added to these solvent mixtures (1.5 mL liquid) and agitated at RT over 4 days. After 4 days, the samples were aliquoted and centrifuged. The solids were analyzed by XRPD and the supernatant was analyzed for water activity. 1:1 mixture of Forms A and D was slurried in in-propanol overnight at RT. The slurry was centrifuged and the solid form was analyzed by XRPD.

[5] = Surface area analysis (BET); format: physicochemical; conditions: for BET Surface Area: Krypton gas adsorption
Description: Surface area measurement was conducted using a Micromeritics ASAP 2460 with a Micromeritics Smart VacPrep attachment (Micromeritics Instrument Corp., GA). A sample of 500 mg-1 g was weighed into an empty ASAP 2460 tube and placed on the Smart VacPrep, degassed for 24 hours under ambient conditions and then exposed to Krypton gas adsorption at […] and 100 mm Hg hold pressure. An 11-point measurement was made in the relative pressure range of 0.050-0.300 and the data was analyzed using MicroActive software provided by the vendor.

[6] = Particle size distribution analysis (PSD); format: physicochemical
Description: Particle size analysis was performed using a Malvern Mastersizer 2000 instrument equipped with a Hydros 2000SM wet dispersion attachment (Malvern Instruments Ltd., Malvern, UK). ˜30 mg of API was weighed into a vial and 1 mL of 0.1% Span 85 in heptane was added. The vial was sonicated for 5 seconds, about 0.3 mL was added to the sampler at a stir speed of 1500 rpm, and a PSD was performed at an obscuration of 10-20%. The sample was then sonicated for 10 more seconds (a total of 15 seconds), about 0.3 mL was added to the sampler, a PLM image was acquired, and PSD was performed. The same sample was then sonicated for another 15 seconds (a total of 30 seconds), about 0.3 mL was added, a PLM photo was taken and PSD was performed. From the sonication study, an appropriate sonication period was chosen. The PLM images and PSDs were used to determine how much sonication the sample needed to disperse clumps but prevent or minimize crystal fracturing. Three more samples, of ˜10 mg, were weighed into vials and 1 mL of 0.1% Span 85 in heptane was added. The samples were sonicated for the sonication period determined in the sonication study. The final PSD analysis was performed in triplicate using the predetermined sonication period. The instrument was rinsed twice with isopropyl alcohol (IPA) and once with heptane before being filled with 0.1% Span 85 in heptane for each sample. After the last sample had run, the instrument was rinsed with IPA once.

[7] = Jet milling of Form A, physical form after size reduction; format: physicochemical; conditions: jet mill
Description: (§1) Milling of Form A may optimize certain PK properties. A scaled up Form A lot was milled and also placed on stability studies (40° C./75% RH, 25° C./60% RH, open vials). Three more lots were also milled which behaved similarly upon milling. A milled representative lot was characterized and the physical form was determined. This lot was slurried in 100% ethanol to obtain Form A and milled using a jet mill at for 3.5 hrs with 60 psi pressure. […] The particle size analysis (PSD) was determined to be D10=0.7 μm, D50=2.7 μm, D90=6.7 μm. Post milling, a portion of the API (Active Pharmaceutical Ingredient, i.e. GDC-0077) batch was placed on stability at 40° C./75% RH and 25° C./60% RH in open vials. Solid-state data was collected at 4 and 8 weeks to evaluate effect of temperature and humidity on the physical form. The milled and stability samples were characterized by XRPD, PLM, DSC, TGA, Water sorption analysis and surface area analysis. DSC runs were performed in the modulated mode using non-hermetically crimped pans, a heating rate of 1° C./min from 0-175° C., modulation amplitude of ±1° C. and a period of 60 seconds.

[8] = Water solubility of Form A; format: physicochemical; conditions: pH 7.06, water, room temperature, pH of 7.06
Excerpt: The trihydrate form was obtained by slurrying Form A in DI water over 4 days (RT), centrifuging the slurry to remove supernatant and then drying the solid at RT for a few hours.

[9] = Slurry of Form A in DI water, anhydrate to hydrate conversion by XRPD; format: physicochemical
Description: Conversion of anhydrous Form A to Form B was investigated. […] To check for hydrate formation, Form A was slurried in DI water for 4 days (RT). Form conversion (anhydrate to hydrate) was initiated at 12 hours and was complete within 4 days, as detected by XRPD with reference to Form B. Anhydrate (Form A) to hydrate (Form B) conversion was measured upon slurrying in DI water for 4 days. […] Form conversion is complete by 96 hrs.

[10] = Stability study of milled Form A in open vials; format: physicochemical; conditions: up to 8 weeks
Description: as §1

[11] = after jet milling 3.5 hrs, 60 psi
[12] = listed as printed without sonication time

C[C@H](Nc1ccc2c(c1)OCCn1cc(N3C(=O)OC[C@H]3C(F)F)nc1-2)C(N)=O [Form B, (S)-2-((2-((S)-4-(difluoromethyl)-2-oxooxazolidin-3-yl)-5,6-dihydrobenzo[f]imidazo[1,2-d][1,4]oxazepin-9-yl)amino) propanamide]
RH below which dehydration commences (desorption curve) ([1]; 25° C.): below 40 % RH | RH range where intermediate dehydrated form is evident ([1]; 25° C., desorption): 20-50 % RH | RH beyond which the anhydrous product rehydrates ([1]; 25° C., resorption): > 40 % RH | lattice water lost on isothermal dehydration [2]: 12%

C[C@H](Nc1ccc2c(c1)OCCn1cc(N3C(=O)OC[C@H]3C(F)F)nc1-2)C(N)=O [GDC-0077, (S)-2-((2-((S)-4-(difluoromethyl)-2-oxooxazolidin-3-yl)-5,6-dihydrobenzo[f]imidazo[1,2-d][1,4]oxazepin-9-yl)amino) propanamide]
PI3K activity (PI3K): potent | aw of anhydrate-hydrate equilibrium [3]: 0.82-0.86 | equilibrium RH (relative humidity) zone for the two forms [3]: 82-86% | water content equivalent to equilibrium RH zone [3]: 65-83 % w/w

C[C@H](Nc1ccc2c(c1)OCCn1cc(N3C(=O)OC[C@H]3C(F)F)nc1-2)C(N)=O [Form D, (S)-2-((2-((S)-4-(difluoromethyl)-2-oxooxazolidin-3-yl)-5,6-dihydrobenzo[f]imidazo[1,2-d][1,4]oxazepin-9-yl)amino) propanamide]
form conversion in slurry ([4]; Forms A and D 1:1, n-propanol, RT, overnight): converts to Form A

C[C@H](Nc1ccc2c(c1)OCCn1cc(N3C(=O)OC[C@H]3C(F)F)nc1-2)C(N)=O [Jet Milled]
BET Surface Area [5]: 6.68 ± 0.16 m2/g | BET Surface Area ([5]; listed as milled lot): 6.68 m2/g | surface area from sauter mean diameter (D3,2) ([5]; calculated from particle size): 3.42 m2/g | increase in surface area upon milling ([5]; milled versus unmilled): 10 × | increase in moisture uptake compared to the unmilled material ([1]; water sorption profile): 1 % w/w | D10 [6, 11]: 0.7 μm | D50 [6, 11]: 2.7 μm | D90 [6, 11]: 6.7 μm

C[C@H](Nc1ccc2c(c1)OCCn1cc(N3C(=O)OC[C@H]3C(F)F)nc1-2)C(N)=O [Form A, (S)-2-((2-((S)-4-(difluoromethyl)-2-oxooxazolidin-3-yl)-5,6-dihydrobenzo[f]imidazo[1,2-d][1,4]oxazepin-9-yl)amino) propanamide]
physical form upon milling [7]: remains stable | moisture uptake (water sorption) ([1]; 25° C., up to 90% RH): 0.25 % w/w | moisture uptake (water sorption) ([1]; 25° C., up to 90% RH, listed as Form I): < 0.3 % w/w | solubility [8]: 30.8 µg/mL (≈ 75.6 µM) | D10 ([6]; 5 sec sonication): 3.24 μm | D50 ([6]; 5 sec sonication): 14.87 μm | D90 ([6]; 5 sec sonication): 40.92 μm | D[4.3] ([6]; 5 sec sonication): 19.09 μm | D10 ([6]; 15 sec sonication): 2.70 μm | D50 ([6]; 15 sec sonication): 10.93 μm | D90 ([6]; 15 sec sonication): 27.59 μm | D[4.3] ([6]; 15 sec sonication): 13.44 μm | D10 [6, 12]: 4.76 μm | D50 [6, 12]: 27.73 μm | D90 [6, 12]: 208.16 μm | D[4.3] [6, 12]: 74.60 μm | relative thermodynamic stability of the forms ([4]; Form A versus Form D, RT to 214° C.): thermodynamically stable form; also recorded: more stable form | time by which form conversion is complete [9]: ≤ 96 h | time at which anhydrate to hydrate conversion was initiated ([9]; RT): 12 h | time to complete anhydrate to hydrate conversion ([9]; RT): ≤ 4 days | time within which anhydrate to hydrate conversion starts ([9]; hydrate marker peak by XRPD): ≤ 12 h | physical form stability ([10]; 25° C./60% RH): remains stable | physical form stability ([10]; 40° C./75% RH): remains stable

C[C@H](Nc1ccc2c(c1)OCCn1cc(N3C(=O)OC[C@H]3C(F)F)nc1-2)C(N)=O [Unmilled]
BET Surface Area [5]: 0.78 ± 0.03 m2/g | BET Surface Area ([5]; listed as unmilled material): 0.78 m2/g | weight gain (water sorption) ([1]; up to 90% RH): 0.25%
